The results in this text go back to patent US10670605B2, “Cysteine reactive probes and uses thereof” (The Scripps Research Institute, priority 2015, dated 2020).

Each structure is given as a SMILES string.

Common to all, as to experiment: Competitive isoTOP-ABPP in situ (fragment-treated cells)
Holding throughout (assay type): cell-based

The target of experiment [1] is T1, cysteines in MDA-MB-231 and Ramos cells (Homo sapiens, UniProt P13667).
T1 sequence (P13667 21-645): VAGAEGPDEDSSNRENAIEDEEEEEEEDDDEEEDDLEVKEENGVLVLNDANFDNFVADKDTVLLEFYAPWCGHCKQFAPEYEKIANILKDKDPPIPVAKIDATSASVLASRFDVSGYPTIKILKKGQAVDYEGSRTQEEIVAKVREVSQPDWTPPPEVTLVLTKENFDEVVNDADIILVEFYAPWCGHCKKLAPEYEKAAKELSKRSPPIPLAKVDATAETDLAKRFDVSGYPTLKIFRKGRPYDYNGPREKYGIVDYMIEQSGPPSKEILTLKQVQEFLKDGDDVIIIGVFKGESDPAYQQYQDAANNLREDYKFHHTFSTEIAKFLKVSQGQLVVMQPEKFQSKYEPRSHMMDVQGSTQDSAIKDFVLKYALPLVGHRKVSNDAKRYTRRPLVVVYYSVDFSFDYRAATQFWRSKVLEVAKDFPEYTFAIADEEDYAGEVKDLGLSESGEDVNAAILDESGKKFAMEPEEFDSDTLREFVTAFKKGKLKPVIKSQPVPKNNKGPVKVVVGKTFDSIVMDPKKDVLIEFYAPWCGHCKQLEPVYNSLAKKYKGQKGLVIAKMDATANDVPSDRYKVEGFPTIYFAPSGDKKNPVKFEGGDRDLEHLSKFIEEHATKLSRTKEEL

Experiment [2] concerns the target cysteines in MDA-MB-231 and Ramos cells (Homo sapiens, UniProt P83731).
The target of experiment [3] is T2, cysteines in MDA-MB-231 and Ramos cells (Homo sapiens, UniProt Q13418).
T2 sequence (Q13418 1-452): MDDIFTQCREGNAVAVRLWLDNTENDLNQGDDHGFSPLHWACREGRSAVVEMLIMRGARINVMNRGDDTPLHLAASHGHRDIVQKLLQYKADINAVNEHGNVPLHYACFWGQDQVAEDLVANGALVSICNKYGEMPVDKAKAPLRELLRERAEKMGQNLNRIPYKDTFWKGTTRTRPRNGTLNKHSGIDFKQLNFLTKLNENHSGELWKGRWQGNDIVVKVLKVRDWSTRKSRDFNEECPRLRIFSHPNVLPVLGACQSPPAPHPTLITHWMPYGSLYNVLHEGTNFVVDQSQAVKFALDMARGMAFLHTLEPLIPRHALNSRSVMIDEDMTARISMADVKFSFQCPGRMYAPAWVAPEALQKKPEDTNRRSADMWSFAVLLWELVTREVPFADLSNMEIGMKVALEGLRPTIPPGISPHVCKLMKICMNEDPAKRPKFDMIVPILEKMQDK

The target of experiment [4] is T3, cysteines in MDA-MB-231 and Ramos cells (Homo sapiens, UniProt Q29RF7).
T3 sequence (Q29RF7 1-1337): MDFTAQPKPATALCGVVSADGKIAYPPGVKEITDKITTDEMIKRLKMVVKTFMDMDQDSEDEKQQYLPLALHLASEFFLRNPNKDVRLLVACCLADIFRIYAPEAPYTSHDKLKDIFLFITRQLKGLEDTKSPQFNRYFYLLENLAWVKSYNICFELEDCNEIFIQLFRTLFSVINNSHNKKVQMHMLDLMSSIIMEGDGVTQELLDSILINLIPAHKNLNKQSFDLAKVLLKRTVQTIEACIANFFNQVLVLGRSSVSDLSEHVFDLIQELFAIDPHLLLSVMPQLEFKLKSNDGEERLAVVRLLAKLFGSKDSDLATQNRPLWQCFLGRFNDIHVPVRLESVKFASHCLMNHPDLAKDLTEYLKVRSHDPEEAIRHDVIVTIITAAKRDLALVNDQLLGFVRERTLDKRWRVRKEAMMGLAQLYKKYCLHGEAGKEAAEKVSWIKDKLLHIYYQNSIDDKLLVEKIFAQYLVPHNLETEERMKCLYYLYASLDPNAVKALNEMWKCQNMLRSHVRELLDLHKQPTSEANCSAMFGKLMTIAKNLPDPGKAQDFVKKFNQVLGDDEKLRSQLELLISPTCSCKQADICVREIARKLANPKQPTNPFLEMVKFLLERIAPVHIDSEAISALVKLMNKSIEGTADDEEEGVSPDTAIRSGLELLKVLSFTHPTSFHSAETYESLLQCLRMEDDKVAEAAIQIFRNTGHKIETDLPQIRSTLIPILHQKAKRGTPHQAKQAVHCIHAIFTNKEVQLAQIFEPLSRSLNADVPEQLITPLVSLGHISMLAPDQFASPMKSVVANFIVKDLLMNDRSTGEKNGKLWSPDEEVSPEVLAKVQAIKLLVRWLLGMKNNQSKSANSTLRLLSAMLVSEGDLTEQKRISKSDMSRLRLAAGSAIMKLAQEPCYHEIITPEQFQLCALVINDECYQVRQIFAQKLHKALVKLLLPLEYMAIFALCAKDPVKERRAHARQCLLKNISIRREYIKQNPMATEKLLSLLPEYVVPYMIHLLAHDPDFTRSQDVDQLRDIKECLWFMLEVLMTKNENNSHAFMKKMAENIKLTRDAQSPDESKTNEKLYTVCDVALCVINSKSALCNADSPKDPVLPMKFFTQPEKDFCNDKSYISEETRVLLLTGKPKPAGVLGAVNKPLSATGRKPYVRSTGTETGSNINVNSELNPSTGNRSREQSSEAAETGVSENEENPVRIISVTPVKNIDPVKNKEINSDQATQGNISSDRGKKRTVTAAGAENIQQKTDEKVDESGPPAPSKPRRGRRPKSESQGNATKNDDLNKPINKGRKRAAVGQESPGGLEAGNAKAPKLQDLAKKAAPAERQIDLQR

Experiment [5] deals with T4, cysteines in MDA-MB-231 and Ramos cells (Homo sapiens, UniProt Q9Y3A3).
T4 sequence (Q9Y3A3 1-225): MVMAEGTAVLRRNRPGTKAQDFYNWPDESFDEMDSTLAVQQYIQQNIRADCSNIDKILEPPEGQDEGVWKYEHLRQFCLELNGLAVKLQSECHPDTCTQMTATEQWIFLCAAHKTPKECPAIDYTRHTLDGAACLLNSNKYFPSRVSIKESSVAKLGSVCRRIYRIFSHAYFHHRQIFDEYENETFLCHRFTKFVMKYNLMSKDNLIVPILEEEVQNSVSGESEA

For the molecule `O=C(CCl)NC12CC3CC(CC(C3)C1)C2` [compound 21], in experiment [1] (200 μM, insitu, 231), the “isoTOP-ABPP ratio P13667_C206” value came to 0.8. In experiment [2] (200 μM, insitu, 231), the “isoTOP-ABPP ratio P83731_C6” value was determined as 1.0. Besides, the “isoTOP-ABPP ratio Q13418_C346” value in experiment [3] (200 μM, insitu, 231) is recorded as 0.5. Further, in experiment [4] (200 μM, insitu, 231), the “isoTOP-ABPP ratio, cysteine Q29RF7_C242” value was 0.9.

For the molecule `COc1ccc2c(c1)CCCN2C(=O)CCl` [compound 2], in experiment [1] (200 μM, insitu, 231), the “isoTOP-ABPP reactivity P13667_C206 PDIA4” value amounted to 2.6 and the “isoTOP-ABPP reactivity P13667_C555 PDIA4” value worked out at 3.2. Also, the “isoTOP-ABPP reactivity P83731_C6 RPL24” value in experiment [2] (200 μM, insitu, 231) came out at 2.4. Also, in experiment [3] (200 μM, insitu, 231), the “isoTOP-ABPP reactivity Q13418_C346 ILK” value was determined as 1.4.

In the case of `Cn1cc(S(=O)(=O)N2CCOCC2)cc1C(=O)NC(=O)CCl` [compound 11], in experiment [1] (100 μM in situ 231), the “isoTOP-ABPP ratio P13667_C206” value amounted to 4.1. In experiment [2] (100 μM in situ 231), the “isoTOP-ABPP ratio P83731_C6” value is on record as 0.5. Besides, the “isoTOP-ABPP ratio Q13418_C346” value in experiment [3] (100 μM in situ 231) worked out at 0.6. In addition, the “isoTOP-ABPP ratio, cysteine Q29RF7_C242” value in experiment [4] (100 μM in situ 231) is given as 0.9. In experiment [5] (100 μM in situ 231), the “isoTOP-ABPP ratio Q9Y3A3_C134” value is listed as 1.8.

As for `COc1ccccc1OCCNC(=O)CCl` [compound 28], in experiment [1] (200 μM, insitu, 231), the “isoTOP-ABPP ratio P13667_C206” value was found to be 1.3. Besides, the “isoTOP-ABPP ratio Q29RF7_C242” value in experiment [4] (200 μM, insitu, 231) was 1.0.

As for `O=C(CCl)NCCc1c[nH]c2ccccc12` [compound 13], the “isoTOP-ABPP ratio P13667_C206” value in experiment [1] (200 μM, insitu, 231) is recorded as 1.1. Also, in experiment [1] (200 μM, insitu, ramos), the “isoTOP-ABPP ratio P13667_C555” value amounted to 2.0. The “isoTOP-ABPP ratio P83731_C6” value in experiment [2] (200 μM, insitu, 231) was 0.7; in experiment [2] (200 μM, insitu, ramos) it was 1.0. For the same molecule, the “isoTOP-ABPP ratio Q13418_C346” value worked out at 0.7 in experiment [3] (200 μM, insitu, 231) and 2.1 in experiment [3] (200 μM, insitu, ramos). The “isoTOP-ABPP ratio, cysteine Q29RF7_C532” value in experiment [4] (200 μM, insitu, ramos) is listed as 2.0. Further, in experiment [5] (200 μM, insitu, ramos), the “isoTOP-ABPP ratio Q9Y3A3_C134” value was determined as 1.9.

Take `Cc1ccc(C=C(C#N)C(=O)NCCN2CCOCC2)cc1` [compound 41]: in experiment [1] (200 μM, insitu, 231), the “isoTOP-ABPP ratio P13667_C206” value was 1.0 and the “isoTOP-ABPP ratio P13667_C555” value stood at 1.0. For the same molecule, in experiment [2] (200 μM, insitu, 231), the “isoTOP-ABPP ratio P83731_C6” value came out at 0.3. Moreover, the “isoTOP-ABPP ratio Q13418_C346” value in experiment [3] (200 μM, insitu, 231) was found to be 0.6. Moreover, the “isoTOP-ABPP ratio Q29RF7_C532” value in experiment [4] (200 μM, insitu, 231) is on record as 0.8. Moreover, in experiment [5] (200 μM, insitu, 231), the “isoTOP-ABPP ratio Q9Y3A3_C134” value is reported as 0.9.

Take `C=CC(=O)N(Cc1cccnc1)c1cc(C(F)(F)F)cc(C(F)(F)F)c1` [compound 31]: the “isoTOP-ABPP ratio P13667_C206” value in experiment [1] (200 μM, insitu, 231) was 0.8; in experiment [1] (200 μM, insitu, ramos), 1.1. Also, the “isoTOP-ABPP ratio P13667_C555” value in experiment [1] (200 μM, insitu, 231) is reported as 0.8; in experiment [1] (200 μM, insitu, ramos), 1.1. In addition, the “isoTOP-ABPP ratio Q13418_C346” value in experiment [3] (200 μM, insitu, 231) came to 0.6. Also, the “isoTOP-ABPP ratio Q29RF7_C532” value in experiment [4] (200 μM, insitu, 231) is given as 5.1; in experiment [4] (200 μM, insitu, ramos) it was 8.1. For the same molecule, the “isoTOP-ABPP ratio Q9Y3A3_C134” value in experiment [5] (200 μM, insitu, 231) came to 1.0; in experiment [5] (200 μM, insitu, ramos), 1.8.

Regarding `COc1cc2c(cc1OC)CN(C(=O)CCl)CC2` [compound 8], in experiment [1] (200 μM, insitu, 231), the “isoTOP-ABPP reactivity P13667_C206 PDIA4” value was 15.2 and the “isoTOP-ABPP reactivity P13667_C555 PDIA4” value stood at 20.0. Besides, the “isoTOP-ABPP reactivity Q29RF7_C242 PDS5A” value in experiment [4] (200 μM, insitu, 231) is given as 1.0. For the same molecule, the “isoTOP-ABPP reactivity Q9Y3A3_C134 MOB4” value in experiment [5] (200 μM, insitu, 231) is given as 1.6.
